# Assay results reported in US20220133699A1, “Antibacterial Compositions” (Singapore Eye Research Institute, priority 2019, published 2022).
# Positions of bridges follow the written chain, without caps; N, C: chain ends. Residues, ends and D or L forms follow the SMILES beside them. Chains are numbered I, II in the order given.
# What was measured:
# [1] = test system: KLPN 27025; assay: MIC of antibiotics alone against KLPN 27025 (Table 1); format: cell-based, Klebsiella pneumonia; conditions: MIC dil in Full strength MHB, antibiotic alone
# Description: (§1) KLPN 8852, 27025 and 24076 are carbapenemase resistant (“CRE”) strains of the common bacteria, KLPN, Klebsiella pneumonia. […] The ability of amikacin as well as three carbapenem antibiotics (meropenem, imipenem, and doripenem) to kill each of these strains was tested using minimum inhibitory concentration, or MIC, as a measure of effectiveness.
# [2] = test system: KLPN 24076; assay: MIC of antibiotics alone against KLPN 24076 (Table 1); format: cell-based, Klebsiella pneumonia; conditions: MIC dil in Full strength MHB, antibiotic alone
# Description: as §1
# [3] = test system: KLPN 8852; assay: MIC of antibiotics alone against KLPN 8852 (Table 1); format: cell-based, Klebsiella pneumonia; conditions: MIC dil in Full strength MHB, antibiotic alone
# Description: as §1
# [4] = test system: ACBA 1010; assay: MIC of antibiotics alone against ACBA 1010 (Table 1); format: cell-based, Acinetobacter baumannii; conditions: MIC dil in Full strength MHB, antibiotic alone
# [5] = test system: ACBA 1010; assay: microbe, parasite or virus in culture; format: cell-based, Acinetobacter baumannii; conditions: for Synergy MIC / MIC: ACBA 1010; for MIC: Acinetobacter baumannii, agent alone, read-out: Monotherapy MIC
# Description: (§2) The ability of B2088 [RGRKVVRR)2KK] to kill strain ACBA 1010 was tested by itself (as a monotherapy), as well as in combination with one of meropenem, imipenem, or doripenem (as a combination therapy) using minimum inhibitory concentration, or MIC, as a measure of effectiveness. Synergism MIC indicates the MIC of each of B2088 or the carbapenem antibiotic when used as an antibacterial composition.
# [6] = test system: KLPN 27025; assay: microbe, parasite or virus in culture; format: cell-based, Klebsiella pneumonia; conditions: for Synergy MIC / MIC: KLPN 27025; for MIC: Klebsiella pneumoniae, agent alone, read-out: Monotherapy MIC
# Description: as §2, with “each of CRE strains KLPN 8852, 27025 and 24076” for “strain ACBA 1010”
# [7] = test system: KLPN 8852; assay: microbe, parasite or virus in culture; format: cell-based, Klebsiella pneumonia; conditions: for Synergy MIC / MIC: KLPN 8852; for MIC: Klebsiella pneumoniae, agent alone, read-out: Monotherapy MIC
# Description: as §2, with “each of CRE strains KLPN 8852, 27025 and 24076” for “strain ACBA 1010”
# [8] = test system: KLPN 24076; assay: microbe, parasite or virus in culture; format: cell-based, Klebsiella pneumonia; conditions: for Synergy MIC / MIC: KLPN 24076; for MIC: Klebsiella pneumoniae, agent alone, read-out: Monotherapy MIC
# Description: as §2, with “each of CRE strains KLPN 8852, 27025 and 24076” for “strain ACBA 1010”
# [9] = MIC of each agent in combination B2088 + Doripenem
# [10] = MIC of each agent in combination B2088 + Imipenem
# [11] = MIC of each agent in combination B2088 + Meropenem
Compound,MIC [1] [µg/mL],MIC [2] [µg/mL],MIC [3] [µg/mL],MIC [4] [µg/mL],"Synergy MIC [5, 9] [µg/mL]","Synergy MIC [5, 10] [µg/mL]","Synergy MIC [5, 11] [µg/mL]","Synergy MIC [6, 9] [µg/mL]","Synergy MIC [6, 10] [µg/mL]","Synergy MIC [6, 11] [µg/mL]","Synergy MIC [7, 9] [µg/mL]","Synergy MIC [7, 10] [µg/mL]","Synergy MIC [7, 11] [µg/mL]","Synergy MIC [8, 9] [µg/mL]","Synergy MIC [8, 10] [µg/mL]","Synergy MIC [8, 11] [µg/mL]",MIC [5] [µg/mL],MIC [6] [µg/mL],MIC [7] [µg/mL],MIC [8] [µg/mL],also measured
"NCC[C@H](O)C(=O)N[C@@H]1C[C@H](N)[C@@H](O[C@H]2O[C@H](CN)[C@@H](O)[C@H](O)[C@H]2O)[C@H](O)[C@H]1O[C@H]1O[C@H](CO)[C@@H](O)[C@H](N)[C@H]1O [Amikacin, amikacin]",0.78,1.56,6.25,1.56,–,–,–,–,–,–,–,–,–,–,–,–,–,–,–,–,–
"CC(C)[C@H](NC(=O)[C@H](CCCCN)NC(=O)[C@H](CCCNC(=N)N)NC(=O)CNC(=O)[C@@H](N)CCCNC(=N)N)C(=O)N[C@H](C(=O)N[C@@H](CCCNC(=N)N)C(=O)N[C@@H](CCCNC(=N)N)C(=O)NCCCC[C@H](NC(=O)[C@H](CCCNC(=N)N)NC(=O)[C@H](CCCNC(=N)N)NC(=O)[C@@H](NC(=O)[C@@H](NC(=O)[C@H](CCCCN)NC(=O)[C@H](CCCNC(=N)N)NC(=O)CNC(=O)[C@@H](N)CCCNC(=N)N)C(C)C)C(C)C)C(=O)N[C@@H](CCCCN)C(=O)O)C(C)C [B2088, [RGRKVVRR)2KK]] (I: H-RGRKVVRRKK-OH / II: H-RGRKVVRR; amide I:9-II:C; N-terminus and C-terminus assumed)",–,–,–,–,0.0625,1,1,0.01562,1,0.0625,0.25,0.5,1,1,1,1,–,–,–,–,Monotherapy MIC [5]: 6.25 µg/mL; Monotherapy MIC [6]: 6.25 µg/mL; Monotherapy MIC [7]: 25 µg/mL; Monotherapy MIC [8]: 6.25 µg/mL
"C[C@@H](O)[C@H]1C(=O)N2C(C(=O)O)=C(S[C@@H]3CN[C@H](CNS(N)(=O)=O)C3)[C@H](C)[C@H]12 [Doripenem, doripenem]",25,25,> 50,0.195,0.007813,–,–,0.007813,–,–,0.125,–,–,1,–,–,< 0.0975,25,> 50,25,–
"C[C@@H](O)[C@H]1C(=O)N2C(C(=O)O)=C(SCCN=CN)C[C@H]12 [Imipenem, imipenem]",> 50,> 50,> 50,25,–,1,–,–,1,–,–,0.5,–,–,1,–,12.5,> 50,> 50,> 50,–
"C[C@@H](O)[C@H]1C(=O)N2C(C(=O)O)=C(S[C@@H]3CN[C@H](C(=O)N(C)C)C3)[C@H](C)[C@H]12 [Meropenem, meropenem]",> 50,> 50,> 50,1.56,–,–,0.5,–,–,0.007813,–,–,1,–,–,1,1.56,50,> 50,> 50,–
